Data reported in patent publication US20200068890A1 (Person to Whom the Inventor is Obligated to Assign, priority 2017, published 2020).
Like-named read-outs stand apart in the source and are kept apart here.

Assays:
A. thaliana DHDPS = test system: T1, A. thaliana DHDPS; assay: DHDPS-DHDPR coupled assay, dose response inhibitor assay; assay type: biochemical, Arabidopsis thaliana
T1 construct: AtDHDPS|10|0.00008; no borders, domain or tags given
Procedure: DHDPS enzyme activity was determined using the coupled assay in a Cary 4000 UV/Vis spectrophotometer at 340 nm in 1 cm acrylic cuvettes. A master mix was prepared for each reaction as per Table 1. Reaction mixtures containing enzymes, pyruvate, buffer and NADPH were incubated at 30° C. for 12 mins before the addition of ASA to initiate the reaction. The oxidation of NADPH to NADP^+ was then monitored at 340 nm at 30° C. as a function of time. The initial rate (ΔA340·min^−1) was calculated from the slope of the linear portion of the A340 versus time profile. All experiments were carried out in triplicate. The enzyme kinetic parameters, including KM values, were determined using the Michaelis-Menten equation (Equation 1). Unless otherwise stated, all kinetic data were fitted using the built-in equations in GraphPad Prism.
To determine/C50 values for the inhibitors, A. thaliana DHDPS enzyme activity was measured using the coupled assay (detailed above) in the presence of increasing concentrations of inhibitor. The initial rate was then plotted as a function of the log 10 of the inhibitor concentration and the/C50 determined according to Equation 2.

[1] = test system: Acinetobacter baumannii 17978; assay: Broth microdilution MIC; assay type: cell-based
Procedure: (§1) Assays were carried out by a broth microdilution method using a 96-well plate according to guidelines defined by the European Committee on Antimicrobial Susceptibility Testing as described here. Overnight cultures of strains were grown in tryptic soy broth (TSB) at 37° C. The overnight cultures were diluted to a concentration of 1×10^6 bacteria/ml (OD600=0.01) in TSB media. To each well on 96 well plates, 100 μl of bacterially infected media at a concentration of 1×10^6/ml and compounds at various concentrations were added. An uninfected control (i.e. no bacteria) was also included. The plates were incubated at 37° C. wrapped in parafilm for 20 hrs. The growth was assessed by measuring the absorbance at 600 nm. The minimum inhibitory concentration (MIC) was determined to be the lowest concentration of compound that inhibits visible bacterial growth.

[2] = test system: Acinetobacter baumannii AYE; assay: Broth microdilution MIC; assay type: cell-based
Procedure: as §1

EMRSA-15 = assay: Broth microdilution MIC; assay type: cell-based
Procedure: as §1

EMRSA-16 = assay: Broth microdilution MIC; assay type: cell-based
Procedure: as §1

[3] = test system: Enterococcus faecalis 12201; assay: Broth microdilution MIC; assay type: cell-based
Procedure: as §1

[4] = test system: Enterococcus faecalis 775; assay: Broth microdilution MIC; assay type: cell-based
Procedure: as §1

[5] = test system: Enterococcus faecium 12204; assay: Broth microdilution MIC; assay type: cell-based
Procedure: as §1

[6] = test system: Escherichia coli NCTC12923; assay: Broth microdilution MIC; assay type: cell-based
Procedure: as §1

[7] = test system: Klebsiella pneumoniae 13368; assay: Broth microdilution MIC; assay type: cell-based
Procedure: as §1

Klebsiella pneumoniae M6 = assay: Broth microdilution MIC; assay type: cell-based
Procedure: as §1

MSSA 9144 = assay: Broth microdilution MIC; assay type: cell-based; conditions: Staphylococcus aureus
Procedure: as §1

[8] = test system: Pseudomonas aeruginosa 13437; assay: Broth microdilution MIC; assay type: cell-based
Procedure: as §1

[9] = test system: Pseudomonas aeruginosa PA01; assay: Broth microdilution MIC; assay type: cell-based
Procedure: as §1

[10] = test system: Gram-positive and Gram-negative bacterial species; assay: Broth microdilution MIC, panel summary; assay type: cell-based; conditions: read-out: MIC values
Procedure: as §1

O=C(O)CN1C(=O)S/C(=C\c2ccc(F)cc2)C1=O [Compound 1, (Z)-2-(5-(4-Fluorobenzylidene)-2,4-dioxothiazolidin-3-yl)acetic Acid]
IC50 (A. thaliana DHDPS): 92.4 µM | MIC ([1]; Acinetobacter baumannii 17978, replicate 1, read-out: MIC #1): > 64 µg/mL | MIC ([1]; Acinetobacter baumannii 17978, replicate 2, read-out: MIC #2): > 64 µg/mL | MIC ([1]; Acinetobacter baumannii 17978, replicate 3, read-out: MIC #3): > 64 µg/mL | MIC ([2]; replicate 1, read-out: MIC #1): > 64 µg/mL | MIC ([2]; replicate 2, read-out: MIC #2): > 64 µg/mL | MIC ([2]; replicate 3, read-out: MIC #3): > 64 µg/mL | MIC (EMRSA-15; EMRSA-15, replicate 1, read-out: MIC #1): > 64 µg/mL | MIC (EMRSA-15; EMRSA-15, replicate 2, read-out: MIC #2): > 64 µg/mL | MIC (EMRSA-15; EMRSA-15, replicate 3, read-out: MIC #3): > 64 µg/mL | MIC (EMRSA-16; EMRSA-16, replicate 1, read-out: MIC #1): > 64 µg/mL | MIC (EMRSA-16; EMRSA-16, replicate 2, read-out: MIC #2): > 64 µg/mL | MIC (EMRSA-16; EMRSA-16, replicate 3, read-out: MIC #3): > 64 µg/mL | MIC ([3]; Enterococcus faecalis 12201, replicate 1, read-out: MIC #1): > 64 µg/mL | MIC ([3]; Enterococcus faecalis 12201, replicate 2, read-out: MIC #2): > 64 µg/mL | MIC ([3]; Enterococcus faecalis 12201, replicate 3, read-out: MIC #3): > 64 µg/mL | MIC ([4]; Enterococcus faecalis 775, replicate 1, read-out: MIC #1): > 64 µg/mL | MIC ([4]; Enterococcus faecalis 775, replicate 2, read-out: MIC #2): > 64 µg/mL | MIC ([4]; Enterococcus faecalis 775, replicate 3, read-out: MIC #3): > 64 µg/mL | MIC ([5]; Enterococcus faecium 12204, replicate 1, read-out: MIC #1): > 64 µg/mL | MIC ([5]; Enterococcus faecium 12204, replicate 2, read-out: MIC #2): > 64 µg/mL | MIC ([5]; Enterococcus faecium 12204, replicate 3, read-out: MIC #3): > 64 µg/mL | MIC ([6]; Escherichia coli NCTC12923, replicate 1, read-out: MIC #1): > 64 µg/mL | MIC ([6]; Escherichia coli NCTC12923, replicate 2, read-out: MIC #2): > 64 µg/mL | MIC ([6]; Escherichia coli NCTC12923, replicate 3, read-out: MIC #3): > 64 µg/mL | MIC ([7]; Klebsiella pneumoniae 13368, replicate 1, read-out: MIC #1): > 64 µg/mL | MIC ([7]; Klebsiella pneumoniae 13368, replicate 2, read-out: MIC #2): > 64 µg/mL | MIC ([7]; Klebsiella pneumoniae 13368, replicate 3, read-out: MIC #3): > 64 µg/mL | MIC (Klebsiella pneumoniae M6; Klebsiella pneumoniae M6, replicate 1, read-out: MIC #1): > 64 µg/mL | MIC (Klebsiella pneumoniae M6; Klebsiella pneumoniae M6, replicate 2, read-out: MIC #2): > 64 µg/mL | MIC (Klebsiella pneumoniae M6; Klebsiella pneumoniae M6, replicate 3, read-out: MIC #3): > 64 µg/mL | MIC (MSSA 9144; MSSA 9144, replicate 1, read-out: MIC #1): > 64 µg/mL | MIC (MSSA 9144; MSSA 9144, replicate 2, read-out: MIC #2): > 64 µg/mL | MIC (MSSA 9144; MSSA 9144, replicate 3, read-out: MIC #3): > 64 µg/mL | MIC ([8]; Pseudomonas aeruginosa 13437, replicate 1, read-out: MIC #1): > 64 µg/mL | MIC ([8]; Pseudomonas aeruginosa 13437, replicate 2, read-out: MIC #2): > 64 µg/mL | MIC ([8]; Pseudomonas aeruginosa 13437, replicate 3, read-out: MIC #3): > 64 µg/mL | MIC ([9]; Pseudomonas aeruginosa PA01, replicate 1, read-out: MIC #1): > 64 µg/mL | MIC ([9]; Pseudomonas aeruginosa PA01, replicate 2, read-out: MIC #2): > 64 µg/mL | MIC ([9]; Pseudomonas aeruginosa PA01, replicate 3, read-out: MIC #3): > 64 µg/mL | MIC [10]: > 64 µg/mL
